Reference: patent US4245106A, “Process for the preparation of 1-alkyl-3-aryl-4-pyrazolecarboxylates” (Monsanto Company, priority 1979, dated 1981)

How the values were obtained:
Type in all cases: in vivo
Canada Thistle [1] = test: pre-emergent herbicidal activity test
Procedure: (§1) Table II summarizes results of tests conducted to determine the pre-emergent as well as the post-emergent herbicidal activity of the compounds. The pre-emergent test was conducted as follows:
(§2) A good grade of top soil was placed in aluminum pans and compacted to a depth of three-eighths to one-half inch from the top of the pan. On the top of the soil was placed a predetermined number of seeds or vegetative propagules of various plant species. The soil required to level fill the pans after seeding or adding vegetative propagules was weighed into a pan. A known amount of the active ingredient applied in a solvent or as a wettable powder and the soil were thoroughly mixed, and used as a cover layer for prepared pans. After treatment the pans were moved into a greenhouse bench where they were watered from below as needed to give adequate moisture for germination and growth.
(§3) A herbicial rating code was used to signify the extent of phytotoxicity of each species. The rating are defined as follows: […]

Bromus tectorum [2] = test: pre-emergent herbicidal activity test
Procedure: as §1, §2, §3

Lambsquarter [3] = test: pre-emergent herbicidal activity test
Procedure: as §1, §2, §3

Quackgrass [4] = test: pre-emergent herbicidal activity test
Procedure: as §1, §2, §3

Johnsongrass [5] = test: pre-emergent herbicidal activity test
Procedure: as §1, §2, §3

Barnyard grass [6] = test: pre-emergent herbicidal activity test
Procedure: as §1, §2, §3

Velvetleaf [7] = test: pre-emergent herbicidal activity test
Procedure: as §1, §2, §3

Morningglory [8] = test: pre-emergent herbicidal activity test
Procedure: as §1, §2, §3

Nutsedge [9] = test: pre-emergent herbicidal activity test
Procedure: as §1, §2, §3

Cocklebur [10] = test: pre-emergent herbicidal activity test
Procedure: as §1, §2, §3

Smartweed [11] = test: pre-emergent herbicidal activity test
Procedure: as §1, §2, §3

Canada Thistle [12] = test: post-emergent herbicidal activity test
Procedure: (§4) The post-emergent tests were conducted as follows. The active ingredients are applied in spray form to two or three-week old specimens of various plant species. The spray, a solution or wettable powder suspension containing the appropriate rate of active ingredient to give the desired test rate and a surfactant, is applied to the plants. The treated plants are placed in a greenhouse and unless otherwise noted approximately four weeks later the effects are observed and recorded.

Bromus tectorum [13] = test: post-emergent herbicidal activity test
Procedure: as §4

Lambsquarter [14] = test: post-emergent herbicidal activity test
Procedure: as §4

Quackgrass [15] = test: post-emergent herbicidal activity test
Procedure: as §4

Johnsongrass [16] = test: post-emergent herbicidal activity test
Procedure: as §4

Barnyard grass [17] = test: post-emergent herbicidal activity test
Procedure: as §4

Velvetleaf [18] = test: post-emergent herbicidal activity test
Procedure: as §4

Morningglory [19] = test: post-emergent herbicidal activity test
Procedure: as §4

Nutsedge [20] = test: post-emergent herbicidal activity test
Procedure: as §4

Cocklebur [21] = test: post-emergent herbicidal activity test
Procedure: as §4

Smartweed [22] = test: post-emergent herbicidal activity test
Procedure: as §4

[23] = 11.2 Kg/Ha, approximately 28 days after seeding and treating
[24] = *11.2 Kg/Ha, observed approximately 14 days after treatment
[25] = 11.2 Kg/Ha, approximately four weeks later
Also: ranges in brackets are in %.

CCOC(=O)c1cn(C)nc1-c1cccc(C(F)(F)F)c1 [Example 12]
3 (75-100): Pre-Emergent herbicidal rating, E Lambsquarter (Lambsquarter [3]; [23]) | Pre-Emergent herbicidal rating, E Lambsquarter (Lambsquarter [3]; [24]) | Pre-Emergent herbicidal rating, K Barnyard grass (Barnyard grass [6]; [23]) | Pre-Emergent herbicidal rating, K Barnyard grass (Barnyard grass [6]; [24]) | Pre-Emergent herbicidal rating, C Velvetleaf (Velvetleaf [7]; [23]) | Pre-Emergent herbicidal rating, C Velvetleaf (Velvetleaf [7]; [24]) | Pre-Emergent herbicidal rating, D Morningglory (Morningglory [8]; [23]) | Pre-Emergent herbicidal rating, D Morningglory (Morningglory [8]; [24]) | Pre-Emergent herbicidal rating, F Smartweed (Smartweed [11]; [23]) | Pre-Emergent herbicidal rating, F Smartweed (Smartweed [11]; [24])
2 (50-74): Pre-Emergent herbicidal rating, A Canada Thistle (Canada Thistle [1]; [24]) | Pre-Emergent herbicidal rating, J Bromus tectorum (Bromus tectorum [2]; [24]) | Post-Emergent herbicidal rating, E Lambsquarter (Lambsquarter [14]; [24]) | Post-Emergent herbicidal rating, D Morningglory (Morningglory [19]; [25])
0 (0-24): Pre-Emergent herbicidal rating, A Canada Thistle (Canada Thistle [1]; [23]) | Pre-Emergent herbicidal rating, H Quackgrass (Quackgrass [4]; [23]) | Pre-Emergent herbicidal rating, H Quackgrass (Quackgrass [4]; [24]) | Pre-Emergent herbicidal rating, I Johnsongrass (Johnsongrass [5]; [23]) | Pre-Emergent herbicidal rating, I Johnsongrass (Johnsongrass [5]; [24]) | Pre-Emergent herbicidal rating, G Nutsedge (Nutsedge [9]; [23]) | Pre-Emergent herbicidal rating, G Nutsedge (Nutsedge [9]; [24]) | Pre-Emergent herbicidal rating, B Cocklebur (Cocklebur [10]; [23]) | Pre-Emergent herbicidal rating, B Cocklebur (Cocklebur [10]; [24]) | Post-Emergent herbicidal rating, J Bromus tectorum (Bromus tectorum [13]; [25]) | Post-Emergent herbicidal rating, J Bromus tectorum (Bromus tectorum [13]; [24]) | Post-Emergent herbicidal rating, H Quackgrass (Quackgrass [15]; [25]) | Post-Emergent herbicidal rating, H Quackgrass (Quackgrass [15]; [24]) | Post-Emergent herbicidal rating, I Johnsongrass (Johnsongrass [16]; [25]) | Post-Emergent herbicidal rating, I Johnsongrass (Johnsongrass [16]; [24]) | Post-Emergent herbicidal rating, K Barnyard grass (Barnyard grass [17]; [25]) | Post-Emergent herbicidal rating, G Nutsedge (Nutsedge [20]; [25]) | Post-Emergent herbicidal rating, G Nutsedge (Nutsedge [20]; [24]) | Post-Emergent herbicidal rating, F Smartweed (Smartweed [22]; [24])
3 (75-99): Post-Emergent herbicidal rating, D Morningglory (Morningglory [19]; [24])
1 (25-49): Pre-Emergent herbicidal rating, J Bromus tectorum (Bromus tectorum [2]; [23]) | Post-Emergent herbicidal rating, A Canada Thistle (Canada Thistle [12]; [25]) | Post-Emergent herbicidal rating, A Canada Thistle (Canada Thistle [12]; [24]) | Post-Emergent herbicidal rating, E Lambsquarter (Lambsquarter [14]; [25]) | Post-Emergent herbicidal rating, K Barnyard grass (Barnyard grass [17]; [24]) | Post-Emergent herbicidal rating, C Velvetleaf (Velvetleaf [18]; [25]) | Post-Emergent herbicidal rating, C Velvetleaf (Velvetleaf [18]; [24]) | Post-Emergent herbicidal rating, B Cocklebur (Cocklebur [21]; [25]) | Post-Emergent herbicidal rating, B Cocklebur (Cocklebur [21]; [24]) | Post-Emergent herbicidal rating, F Smartweed (Smartweed [22]; [25])

CCOC(=O)c1cn(C)nc1-c1ccc(C(F)(F)F)cc1 [Example 17]
1 (25-49): Pre-Emergent herbicidal rating, J Bromus tectorum (Bromus tectorum [2]; [23]) | Pre-Emergent herbicidal rating, G Nutsedge (Nutsedge [9]; [23]) | Post-Emergent herbicidal rating, A Canada Thistle (Canada Thistle [12]; [25])
3 (75-100): Pre-Emergent herbicidal rating, E Lambsquarter (Lambsquarter [3]; [23])
2 (50-74): Pre-Emergent herbicidal rating, K Barnyard grass (Barnyard grass [6]; [23]) | Pre-Emergent herbicidal rating, F Smartweed (Smartweed [11]; [23])
0 (0-24): Pre-Emergent herbicidal rating, A Canada Thistle (Canada Thistle [1]; [23]) | Pre-Emergent herbicidal rating, H Quackgrass (Quackgrass [4]; [23]) | Pre-Emergent herbicidal rating, I Johnsongrass (Johnsongrass [5]; [23]) | Pre-Emergent herbicidal rating, C Velvetleaf (Velvetleaf [7]; [23]) | Pre-Emergent herbicidal rating, D Morningglory (Morningglory [8]; [23]) | Pre-Emergent herbicidal rating, B Cocklebur (Cocklebur [10]; [23]) | Post-Emergent herbicidal rating, J Bromus tectorum (Bromus tectorum [13]; [25]) | Post-Emergent herbicidal rating, E Lambsquarter (Lambsquarter [14]; [25]) | Post-Emergent herbicidal rating, H Quackgrass (Quackgrass [15]; [25]) | Post-Emergent herbicidal rating, I Johnsongrass (Johnsongrass [16]; [25]) | Post-Emergent herbicidal rating, K Barnyard grass (Barnyard grass [17]; [25]) | Post-Emergent herbicidal rating, C Velvetleaf (Velvetleaf [18]; [25]) | Post-Emergent herbicidal rating, D Morningglory (Morningglory [19]; [25]) | Post-Emergent herbicidal rating, G Nutsedge (Nutsedge [20]; [25]) | Post-Emergent herbicidal rating, B Cocklebur (Cocklebur [21]; [25]) | Post-Emergent herbicidal rating, F Smartweed (Smartweed [22]; [25])
